Results as given in patent publication US20260130925A1, “METHODS FOR TREATING CANCER” (Genesis Molecular AI, Inc., priority 2022, published 2026).

Tests used:
[1] = biological target: T1, PI3Kα H1047R in T47D cells (Homo sapiens, UniProt P42336, H1047R); assay: PI3Kα cellular assay: T47D pAKT S473 HTRF; format: cell-based; settings: for T47D pAKT S473 HTRF IC50 (H1047R): T47D (H1047R) selectivity over SKBR3 (WT): T47D (H1047R) versus SKBR3 (WT) cells; for IC50: T47D cells (H1047R), serum starved, 1 hr compound, 20 ng/ml EGF 10 min
T1 construct: endogenous in cells; host or cells: T47D
Protocol: PI3Kα cellular assay experimental procedure: SKBR3 or T47D cells are seeded in DMEM containing 10% FBS at 25 k cells/well into 96-well cell culture format. Cells are incubated overnight at 37° C. in a 5% CO2 incubator and the following day cell media is aspirated, adherent cells are washed 1× with room temperature PBS prior to serum-free media application. Cells are returned to 37° C. 5% CO2 incubator and incubated a further 16 hrs. Compounds are added to serum starved adherent cells with a top dose of 10,000 nM and 3× multiple dose reductions for a minimum dose of 0.5 nM diluted in DMSO. Cell/compound incubation continues for 1 hr in a 37° C., 5% CO2 incubator prior to 10 minute PIK3CA stimulation with 20 ng/ml EGF. Cells treated with 0.1% DMSO and 20 ng/mL EGF are employed as negative control, cells treated with 10 uM Alpelisib and 20 ng/mL EGF are employed as a positive control. After 10 mins, plates are removed from incubator and cells are lysed with buffer and shaking 45 minutes. 20 μL of lysate is transferred to an opti-384 plate and 2.5 μl of Phospho-AKT d2 antibody with 2.5 μl of Phospho-AKT Eu Cryptate solution in the detection buffer are added to each well. 384 well plate is left overnight at room temperature before reading HTRF on an Envision plate reader.

PI3K H1047R = PI3K H1047R (Homo sapiens, UniProt P42336, H1047R); assay: PI3K H1047R ADP-Glo (PI/PS); format: biochemical; parameters: PI3K H1047R ADP-Glo (PI/PS) IC50: H1047R Selectivity: reference not given here; settings: for IC50: PI/PS substrate
PI3K H1047R, sequence (P42336 whole entry H1047R): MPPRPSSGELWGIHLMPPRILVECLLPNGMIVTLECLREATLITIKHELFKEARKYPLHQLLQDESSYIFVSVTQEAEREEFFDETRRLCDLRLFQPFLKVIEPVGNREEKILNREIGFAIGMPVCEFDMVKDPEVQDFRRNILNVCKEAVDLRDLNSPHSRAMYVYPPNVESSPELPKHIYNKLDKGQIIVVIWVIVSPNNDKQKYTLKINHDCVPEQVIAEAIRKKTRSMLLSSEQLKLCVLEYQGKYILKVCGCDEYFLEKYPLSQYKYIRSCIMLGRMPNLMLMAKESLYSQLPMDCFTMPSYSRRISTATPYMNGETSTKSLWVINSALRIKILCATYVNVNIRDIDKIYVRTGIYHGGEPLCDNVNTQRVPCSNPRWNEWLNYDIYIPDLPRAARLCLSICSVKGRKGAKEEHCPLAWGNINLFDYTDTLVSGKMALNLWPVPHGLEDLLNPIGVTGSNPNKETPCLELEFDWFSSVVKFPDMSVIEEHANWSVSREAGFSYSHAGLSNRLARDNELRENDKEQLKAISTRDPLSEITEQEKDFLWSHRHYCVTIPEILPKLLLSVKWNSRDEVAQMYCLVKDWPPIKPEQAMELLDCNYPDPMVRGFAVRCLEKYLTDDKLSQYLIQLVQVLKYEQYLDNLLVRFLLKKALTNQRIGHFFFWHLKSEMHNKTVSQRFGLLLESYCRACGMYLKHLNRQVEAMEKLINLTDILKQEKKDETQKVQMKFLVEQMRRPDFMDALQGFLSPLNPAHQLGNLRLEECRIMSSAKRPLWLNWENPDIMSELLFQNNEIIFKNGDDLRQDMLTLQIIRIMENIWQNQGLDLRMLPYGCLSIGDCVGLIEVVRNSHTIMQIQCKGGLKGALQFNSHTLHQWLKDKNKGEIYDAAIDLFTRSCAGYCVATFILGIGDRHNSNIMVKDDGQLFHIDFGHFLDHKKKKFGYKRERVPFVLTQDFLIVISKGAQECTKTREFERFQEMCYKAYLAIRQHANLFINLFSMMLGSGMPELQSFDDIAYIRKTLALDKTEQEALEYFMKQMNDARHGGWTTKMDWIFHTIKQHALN
PI3K H1047R, sequence (P27986 whole entry partner): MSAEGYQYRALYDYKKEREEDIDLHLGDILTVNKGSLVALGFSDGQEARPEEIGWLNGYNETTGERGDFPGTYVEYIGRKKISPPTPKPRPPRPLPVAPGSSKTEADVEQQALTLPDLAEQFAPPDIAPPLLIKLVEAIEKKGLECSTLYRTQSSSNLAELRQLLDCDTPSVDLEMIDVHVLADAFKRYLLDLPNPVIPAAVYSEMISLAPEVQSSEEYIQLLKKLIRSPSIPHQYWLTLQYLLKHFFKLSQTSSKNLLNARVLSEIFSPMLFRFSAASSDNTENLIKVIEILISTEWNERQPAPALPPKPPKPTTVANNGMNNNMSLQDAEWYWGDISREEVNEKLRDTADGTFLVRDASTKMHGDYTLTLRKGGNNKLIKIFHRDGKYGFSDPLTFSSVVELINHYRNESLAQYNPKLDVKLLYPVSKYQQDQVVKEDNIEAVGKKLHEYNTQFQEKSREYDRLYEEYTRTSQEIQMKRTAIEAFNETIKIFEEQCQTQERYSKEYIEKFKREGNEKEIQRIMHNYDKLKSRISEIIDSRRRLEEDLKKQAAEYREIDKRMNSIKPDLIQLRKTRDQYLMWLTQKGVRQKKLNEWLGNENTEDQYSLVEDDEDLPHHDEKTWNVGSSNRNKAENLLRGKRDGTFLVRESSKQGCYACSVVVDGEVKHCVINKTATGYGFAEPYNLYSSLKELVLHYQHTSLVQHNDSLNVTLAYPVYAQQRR

T1 sequence (P42336 whole entry H1047R): as the sequence (P42336 whole entry H1047R) above
T1 sequence (P27986 whole entry partner): as the sequence (P27986 whole entry partner) above

Row | SMILES | T47D pAKT S473 HTRF IC50 (H1047R): T47D (H1047R) selectivity over SKBR3 (WT) [1] | IC50 [1] [nM] | PI3K H1047R ADP-Glo (PI/PS) IC50: H1047R Selectivity (PI3K H1047R) | IC50 (PI3K H1047R) [nM]
1 | Cc1cc(C(C)Nc2ccccc2C(=O)O)c2nc(-c3ccc(F)cc3)n(C)c(=O)c2c1 (centres unmarked) [Compound 38] | A (A denotes >20-fold) | < 750 | A (A denotes >20-fold) | < 1000
2 | Cc1cc([C@@H](C)Nc2ccccc2C(=O)O)c2nc(-c3ccc4c(c3)c(C)nn4C)n(C)c(=O)c2c1 [Compound 41] | C (C denotes ≤5-fold) | ≥ 2000 |  | ≥ 10000
3 | Cc1cc(C(C)Nc2ccccc2C(=O)O)c2[nH]c(N3CCOCC3)nc(=O)c2c1 (centres unmarked) [Compound 19] | B (B denotes 20-fold≥value>5-fold) | 750 to 2000 | B (B denotes 20-fold≥value>5-fold) | 1000 to 10000
4 | Cc1cc(C(C)Nc2ccccc2C(=O)O)c2nc(-c3ccc4c(c3)c(C)nn4C)n(C)c(=O)c2c1 (centres unmarked) [Compound 40] | A (A denotes >20-fold) | < 750 | A (A denotes >20-fold) | < 1000
5 | Cc1cc(C(C)Nc2ccccc2C(=O)O)c2nc(-c3cc(C)c4oc(=O)[nH]c4c3)ncc2c1 (centres unmarked) [Compound 5] | B (B denotes 20-fold≥value>5-fold) | 750 to 2000 |  | ≥ 10000
6 | Cc1cc([C@@H](C)Nc2ccccc2C(=O)O)c2cc(-c3ccc4c(c3)c(C)nn4C)ncc2c1 [Compound 84] | A (A denotes >20-fold) | < 750 | A (A denotes >20-fold) | < 1000
7 | Cc1cc(C(C)Nc2ccccc2C(=O)O)c2cc(N3CCOCC3)ncc2c1 (centres unmarked) [Compound 37] | A (A denotes >20-fold) | < 750 | A (A denotes >20-fold) | < 1000
8 | Cc1cc([C@H](C)Nc2ccccc2C(=O)O)c2nc(N3CCC(C)(C)CC3)nc(C#N)c2c1 [Compound 60] | C (C denotes ≤5-fold) | ≥ 2000 |  | ≥ 10000
9 | Cc1cc(C(C)Nc2ccccc2C(=O)O)c2cc(-c3ccnc(C4CC4)c3)n(C)c(=O)c2c1 (centres unmarked) [Compound 82] | A (A denotes >20-fold) | < 750 | A (A denotes >20-fold) | < 1000
10 | Cc1cc([C@@H](C)Nc2ccccc2C(=O)O)c2cc(-c3ccnc(C4CC4)c3)n(C)c(=O)c2c1 [Compound 79] | C (C denotes ≤5-fold) | ≥ 2000 |  | ≥ 10000
11 | Cc1cc([C@H](C)Nc2ccccc2C(=O)O)c2nc(-c3ccc4c(c3)c(C)nn4C)n(C)c(=O)c2c1 (single isomer, unassigned) [Compound 33] | A (A denotes >20-fold) | < 750 | B (B denotes 20-fold≥value>5-fold) | < 1000
12 | Cc1cc(C(C)Nc2ccccc2C(=O)O)c2cc(-c3ccnc(C4CC4)c3)nc(C(N)=O)c2c1 (centres unmarked) [Compound 73] | A (A denotes >20-fold) | < 750 | A (A denotes >20-fold) | < 1000
13 | Cc1cc([C@@H](C)Nc2ccccc2C(=O)O)c2cc(-c3ccc(F)cc3)n(C)c(=O)c2c1 [Compound 76] | A (A denotes >20-fold) | < 750 | A (A denotes >20-fold) | < 1000
14 | Cc1cc([C@@H](C)Nc2ccccc2C(=O)O)c2nc(-c3ccc(F)cc3)n(C)c(=O)c2c1 (single isomer, unassigned) [Compound 32] | A (A denotes >20-fold) | < 750 | A (A denotes >20-fold) | < 1000
15 | Cc1cc(C(C)Nc2ccccc2C(=O)O)c2cc(N3Cc4ccccc4C3)nc(O)c2c1 (centres unmarked) [Compound 51] | A (A denotes >20-fold) | < 750 | A (A denotes >20-fold) | < 1000
16 | Cc1cc([C@H](C)Nc2ccccc2C(=O)O)c2cc(-c3ccnc(C4CC4)c3)n(C)c(=O)c2c1 [Compound 78] | A (A denotes >20-fold) | < 750 | A (A denotes >20-fold) | < 1000
17 | Cc1cc(C(C)Nc2ccccc2C(=O)O)c2nc(N3CCC(C)(C)CC3)nc(NC(=O)CCl)c2c1 (centres unmarked) [Compound 21] | C (C denotes ≤5-fold) | ≥ 2000 |  | 
18 | Cc1cc([C@@H](C)Nc2ccccc2C(=O)O)c2nc(N3Cc4ccccc4C3)[nH]c(=O)c2c1 [Compound 4] | C (C denotes ≤5-fold) | ≥ 2000 |  | 
19 | Cc1cc([C@H](C)Nc2ccccc2C(=O)O)c2nc(N3Cc4ccccc4C3)ncc2c1 [Compound 36] | B (B denotes 20-fold≥value>5-fold) | 750 to 2000 |  | 
20 | Cc1cc([C@H](C)Nc2ccccc2C(=O)O)c2nc(N3CCC(C)(C)CC3)nc(N)c2c1 [Compound 1] | C (C denotes ≤5-fold) | ≥ 2000 |  | 
21 | Cc1cc([C@@H](C)Nc2ccccc2C(=O)O)c2cc(OC3CCOCC3)ncc2c1 [Compound 132] | A (A denotes >20-fold) | < 750 |  | 
22 | Cc1cc([C@H](C)Nc2ccccc2C(=O)O)c2[nH]c(N3CCOCC3)nc(=O)c2c1 [Compound 17] | B (B denotes 20-fold≥value>5-fold) | < 750 |  | 
23 | Cc1cc(C(C)Nc2ccccc2C(=O)O)c2nc(N3CCC(C)(C)CC3)nc(C(N)=O)c2c1 (centres unmarked) [Compound 23] | C (C denotes ≤5-fold) | ≥ 2000 |  | 
24 | Cc1cc([C@@H](C)Nc2ccccc2C(=O)O)c2nc(N3CCC(C)(C)CC3)nc(N)c2c1 [Compound 2] | C (C denotes ≤5-fold) | ≥ 2000 |  | 
25 | Cc1cc(C(C)Nc2ccccc2C(=O)O)c2nc(N3Cc4ccccc4C3)[nH]c(=O)c2c1 (centres unmarked) [Compound 6] | C (C denotes ≤5-fold) | ≥ 2000 |  | 
26 | Cc1cc(C(C)Nc2ccccc2C(=O)O)c2cc(C3CCCOC3)ncc2c1 (centres unmarked) [Compound 131] | A (A denotes >20-fold) | < 750 |  | 
27 | Cc1cc([C@@H](C)Nc2ccccc2C(=O)O)c2nc(-c3ccnc(C4CC4)c3)n(C)c(=O)c2c1 [Compound 145] | B (B denotes 20-fold≥value>5-fold) | < 750 |  | 
28 | Cc1cc(C(C)Nc2ccccc2C(N)=O)c2nc(-c3cccnc3)n(C)c(=O)c2c1 (centres unmarked) [Compound 139] | B (B denotes 20-fold≥value>5-fold) | 750 to 2000 |  | 
29 | Cc1cc(C(C)Nc2ccccc2C(=O)O)c2cc(N3Cc4ccccc4C3)nc(C#N)c2c1 (centres unmarked) [Compound 46] | C (C denotes ≤5-fold) | ≥ 2000 |  | 
